Measured values as given in ChEMBL document CHEMBL6109103, “Dodecapeptides derived from human cathelicidin with potent activity against carbapenem-resistant Acinetobacter baumannii” (Eur J Med Chem, 2025).
Converted amounts (≈) assume the structure as drawn. Positions of bridges follow the written chain, without caps; N, C: chain ends. Non-standard residues stand in square brackets, D forms with d. Residues, ends and D or L forms follow the SMILES beside them. S5 = C=CCCC[C@](C)(N)C(=O)O

Key:
Assay type in all cases: functional
Acinetobacter baumannii [1] = assay: Antibacterial activity against multidrug-resistant Acinetobacter baumannii assessed as inhibition of bacterial growth incubated for 24 hrs by broth dilution assay
Acinetobacter baumannii [2] = assay: Antibacterial activity against Acinetobacter baumannii ATCC 19606 assessed as inhibition of bacterial growth incubated for 24 hrs by broth dilution assay
Staphylococcus aureus [3] = assay: Antibacterial activity against Methicillin-resistant Staphylococcus aureus ATCC 43300 assessed as inhibition of bacterial growth incubated for 24 hrs by broth dilution assay
Staphylococcus aureus [4] = assay: Antibacterial activity against Staphylococcus aureus […] assessed as inhibition of bacterial growth incubated for 24 hrs by broth dilution assay

Compound | MIC (Acinetobacter baumannii [1]) [µg/mL] | MIC (Acinetobacter baumannii [2]) [µg/mL] | MIC (Staphylococcus aureus [3]) [µg/mL] | MIC (Staphylococcus aureus [4]) [µg/mL]
CC[C@H](C)[C@@H]1NC(=O)[C@H](CCCNC(=N)N)NC(=O)[C@H](CCCNC(=N)N)NC(=O)[C@H](C(C)C)NC(=O)[C@H]([C@@H](C)CC)NC(=O)[C@@](C)(NC(=O)[C@@H](N)CCCCN)CCC/C=C\CCC[C@@](C)(C(=O)N[C@@H](Cc2ccccc2)C(=O)N[C@@H](CC(C)C)C(=O)N[C@@H](CCCNC(=N)N)C(=O)O)NC(=O)[C@H](CCCCN)NC1=O (H-K[S5]IVRRIK[S5]FLR-OH; staple (Z) 2-9) | 160 (≈ 101 µM) | 320 (≈ 203 µM) | > 320 | > 320
CC[C@H](C)[C@@H]1NC(=O)[C@H](CCCCN)NC(=O)[C@@](C)(NC(=O)[C@H](CCCNC(=N)N)NC(=O)[C@H](CCCNC(=N)N)NC(=O)[C@@H](NC(=O)[C@@H](NC(=O)[C@H](CCCNC(=N)N)NC(=O)[C@@H](N)CCCCN)[C@@H](C)CC)C(C)C)CCC/C=C\CCC[C@@](C)(C(=O)N[C@@H](CCCNC(=N)N)C(=O)O)NC(=O)[C@H](Cc2ccccc2)NC1=O (H-KRIVRR[S5]KIF[S5]R-OH; staple (Z) 7-11) | > 320 | > 320 | > 320 | > 320
CC[C@H](C)[C@H](NC(=O)[C@H](CCCCN)NC(=O)[C@@H](NC(=O)[C@H](CCCNC(=N)N)NC(=O)[C@]1(C)CCC/C=C/CCC[C@](C)(N)C(=O)N[C@@H](CCCNC(=N)N)C(=O)N[C@@H]([C@@H](C)CC)C(=O)N[C@@H](C(C)C)C(=O)N1)[C@@H](C)CC)C(=O)N[C@@H](Cc1ccccc1)C(=O)N[C@@H](CC(C)C)C(=O)N[C@@H](CCCNC(=N)N)C(=O)O (H-[S5]RIV[S5]RIKIFLR-OH; staple (E) 1-5) | 10 (≈ 6.39 µM) | 10 (≈ 6.39 µM) | 160 (≈ 102 µM) | 160 (≈ 102 µM)
H-KRIVQRIKRFLR-OH | 80 | 160 | > 320 | > 320
H-KRIVKRIKIFLR-OH | 10 | 20 | > 320 | 80
H-KRIVRRIKRFLR-OH | 320 | 320 | > 320 | > 320
H-KRIVIRIKDFLR-OH | 80 | 160 | > 320 | > 320
O=C(O)c1cn(C2CC2)c2cc(N3CCNCC3)c(F)cc2c1=O [CIPROFLOXACIN] | 320 (≈ 966 µM) | 2.5 (≈ 7.54 µM) | 160 (≈ 483 µM) | 2.5 (≈ 7.54 µM)
H-NLVPRTES-OH | > 320 | > 320 | > 320 | > 320
H-KRIVIRIKKFLR-OH | 40 | 80 | 320 | 160
CO/N=C(\C(=O)N[C@@H]1C(=O)N2C(C(=O)O)=C(COC(C)=O)CS[C@H]12)c1csc(N)n1 [CEFOTAXIME] | > 320 | 20 (≈ 43.9 µM) | > 320 | 2.5 (≈ 5.49 µM)
H-KRIVKRIKDFLR-OH | 80 | 160 | > 320 | > 320
CC[C@H](C)[C@H](NC(=O)[C@H](CCCNC(=N)N)NC(=O)[C@@H](N)CCCCN)C(=O)N[C@H](C(=O)N[C@@H](CCCNC(=N)N)C(=O)N[C@@]1(C)CCC/C=C/CCC[C@@](C)(C(=O)N[C@@H](CC(C)C)C(=O)N[C@@H](CCCNC(=N)N)C(=O)O)NC(=O)[C@H]([C@@H](C)CC)NC(=O)[C@H](CCCCN)NC(=O)[C@H]([C@@H](C)CC)NC1=O)C(C)C (H-KRIVR[S5]IKI[S5]LR-OH; staple (E) 6-10) | 10 (≈ 6.47 µM) | 10 (≈ 6.47 µM) | 80 (≈ 51.8 µM) | 80 (≈ 51.8 µM)
H-KRIVRRIKDFLR-OH | 320 | 320 | > 320 | > 320
CC[C@H](C)[C@@H]1NC(=O)[C@H](CCCNC(=N)N)NC(=O)[C@H](CCCNC(=N)N)NC(=O)[C@H](C(C)C)NC(=O)[C@@](C)(NC(=O)[C@H](CCCNC(=N)N)NC(=O)[C@@H](N)CCCCN)CCC/C=C/CCC[C@@](C)(C(=O)N[C@@H](CC(C)C)C(=O)N[C@@H](CCCNC(=N)N)C(=O)O)NC(=O)[C@H]([C@@H](C)CC)NC(=O)[C@H](CCCCN)NC1=O (H-KR[S5]VRRIKI[S5]LR-OH; staple (E) 3-10) | 10 (≈ 6.3 µM) | 20 (≈ 12.6 µM) | 80 (≈ 50.4 µM) | 80 (≈ 50.4 µM)
H-KRIVRRIKKFLR-OH | 160 | 80 | > 320 | > 320
CC[C@H](C)[C@@H]1NC(=O)[C@H](CCCNC(=N)N)NC(=O)[C@@](C)(NC(=O)[C@@H](NC(=O)[C@@H](NC(=O)[C@H](CCCNC(=N)N)NC(=O)[C@@H](N)CCCCN)[C@@H](C)CC)C(C)C)CCC/C=C\CCC[C@@](C)(C(=O)N[C@@H](Cc2ccccc2)C(=O)N[C@@H](CC(C)C)C(=O)N[C@@H](CCCNC(=N)N)C(=O)O)NC(=O)[C@H](CCCCN)NC1=O (H-KRIV[S5]RIK[S5]FLR-OH; staple (Z) 5-9) | 40 (≈ 25.3 µM) | 40 (≈ 25.3 µM) | > 320 | > 320
H-KRIVIRIKRFLR-OH | 10 | 20 | 80 | 160
CC[C@H](C)[C@@H]1NC(=O)[C@H](CCCCN)NC(=O)[C@H]([C@@H](C)CC)NC(=O)[C@H](CCCNC(=N)N)NC(=O)[C@@](C)(NC(=O)[C@@H](NC(=O)[C@@H](NC(=O)[C@H](CCCNC(=N)N)NC(=O)[C@@H](N)CCCCN)[C@@H](C)CC)C(C)C)CCC/C=C\CCC[C@@](C)(C(=O)O)NC(=O)[C@H](CC(C)C)NC(=O)[C@H](Cc2ccccc2)NC1=O (H-KRIV[S5]RIKIFL[S5]-OH; staple (Z) 5-12) | 40 (≈ 26 µM) | 80 (≈ 52.1 µM) | 80 (≈ 52.1 µM) | > 320
H-KRIVKRIKKFLR-OH | > 320 | 160 | 160 | > 320
CC[C@H](C)[C@@H]1NC(=O)[C@H](CCCNC(=N)N)NC(=O)[C@@](C)(N)CCC/C=C\CCC[C@@](C)(C(=O)N[C@H](C(=O)N[C@@H](Cc2ccccc2)C(=O)N[C@@H](CC(C)C)C(=O)N[C@@H](CCCNC(=N)N)C(=O)O)[C@@H](C)CC)NC(=O)[C@H]([C@@H](C)CC)NC(=O)[C@H](CCCNC(=N)N)NC(=O)[C@H](CCCNC(=N)N)NC(=O)[C@H](C(C)C)NC1=O (H-[S5]RIVRRI[S5]IFLR-OH; staple (Z) 1-8) | 40 (≈ 25.1 µM) | 80 (≈ 50.2 µM) | 160 (≈ 100 µM) | 320 (≈ 201 µM)
H-KRIVQRIKKFLR-OH | 20 | 80 | > 320 | > 320
CC[C@H](C)[C@H](NC(=O)[C@H](CCCNC(=N)N)NC(=O)[C@@H](N)CCCCN)C(=O)N[C@H](C(=O)N[C@@H](CCCNC(=N)N)C(=O)N[C@@H](CCCNC(=N)N)C(=O)N[C@H](C(=O)N[C@@]1(C)CCC/C=C\CCC[C@@](C)(C(=O)O)NC(=O)[C@H](CC(C)C)NC(=O)[C@H](Cc2ccccc2)NC(=O)[C@H]([C@@H](C)CC)NC1=O)[C@@H](C)CC)C(C)C (H-KRIVRRI[S5]IFL[S5]-OH; staple (Z) 8-12) | 10 (≈ 6.39 µM) | 10 (≈ 6.39 µM) | 40 (≈ 25.6 µM) | 80 (≈ 51.1 µM)
CC[C@H](C)[C@H](NC(=O)[C@H](CCCCN)NC(=O)[C@@H](NC(=O)[C@]1(C)CCC/C=C\CCC[C@](C)(NC(=O)[C@@H](N)CCCCN)C(=O)N[C@@H]([C@@H](C)CC)C(=O)N[C@@H](C(C)C)C(=O)N[C@@H](CCCNC(=N)N)C(=O)N1)[C@@H](C)CC)C(=O)N[C@@H](Cc1ccccc1)C(=O)N[C@@H](CC(C)C)C(=O)N[C@@H](CCCNC(=N)N)C(=O)O (H-K[S5]IVR[S5]IKIFLR-OH; staple (Z) 2-6) | 10 (≈ 6.51 µM) | 10 (≈ 6.51 µM) | 320 (≈ 208 µM) | 320 (≈ 208 µM)
